Experimental data reported in patent US9296691B2, “Inhibitors of p75 receptor and their uses” (Horacio Uri Saragovi, priority 2010, dated 2016).

How the values were obtained:
p75-Fc = molecular target: T1, p75-Fc (Homo sapiens, UniProt P08138); test: Competitive ELISA, p75-Fc binding to immobilized NGF; settings: for remaining activity at 30 µM: 0.75 h, binding to immobilized NGF, no cpd = 100%, p75-Fc 50 nM, as described for FIG. 1A (compounds 30 μM), below 100% indicates inhibition
T1 construct: purchased R&D
T1 sequence (P08138 29-250 limits assumed): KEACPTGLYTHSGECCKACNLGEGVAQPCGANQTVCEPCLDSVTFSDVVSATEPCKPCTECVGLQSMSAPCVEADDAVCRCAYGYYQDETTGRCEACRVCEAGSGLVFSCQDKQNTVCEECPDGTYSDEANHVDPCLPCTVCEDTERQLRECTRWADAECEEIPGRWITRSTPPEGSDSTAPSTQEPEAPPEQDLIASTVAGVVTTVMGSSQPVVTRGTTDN
Experimental: (§1) The effect of compounds I-B and LM-24 on the binding between NGF and p75 was tested in competitive ELISA assays, where the antagonists prevent soluble p75 from binding to immobilized NGF. The selectivity of antagonism was evaluated by lack of effect upon NGF-TrkA or lack of effect between NGF and anti-NGF monoclonal antibody (mAb) NGF30 interactions (FIG. 1A).
The compound LM-24 has been reported by others (Massa et al., 2006). Binding studies were carried out with all the compounds using I-B as reference.
(§2) Competitive ELISAs were performed as described (Saragovi et al., 1998). The procedure immobilized 50 ng/well NGF, or pro-NGF (Alomone Labs, Israel) onto polystyrene 96-well microtest plates, with washing and blocking with binding buffer (BB; phosphate buffered saline containing 0.5% bovine serum albumin). The following primary reagents in BB were added: recombinant chimeric p75-Fc or recombinant chimeric TrkA-Fc (R&D), or anti-NGF mAb NGF30 (Saragovi et al., 1998); each at 50 nM. The competitors I-B and the other test compounds (or control LM-24) were added at the indicated concentrations, and the plates were incubated for 45 minutes. After washing 3× in BB, HRP-conjugated secondary reagents (Sigma) were added for 30 min (goat anti-human Fc for p75-Fc and for TrkA-Fc; and goat anti-rat Ab for NGF30 mAb), and then wells were washed 3× in BB and 1× in PBS. Peroxidase activity was determined colorimetrically using the substrate TMB One Solution (Promega). The reaction was stopped with 0.5 N H2SO4 and the plates were read at 450 nm (Benchmark Plus, Bio-Rad). Assays were repeated n>4 times, with replicates of 4 wells each assay. […] Wells with no NGF immobilized but with all other reagents added were treated as background (<15% of maximal signals) and standardized to 0% binding.

TrkA-Fc = molecular target: T2, TrkA-Fc (Homo sapiens, UniProt P04629); test: Competitive ELISA, TrkA-Fc binding to immobilized NGF (selectivity control); settings: for TrkA-Fc binding AVERAGE: binding to immobilized NGF, no cpd = 100%, TrkA-Fc 50 nM, as described for FIG. 1A
T2 construct: purchased R&D
T2 sequence (P04629 33-423 limits assumed): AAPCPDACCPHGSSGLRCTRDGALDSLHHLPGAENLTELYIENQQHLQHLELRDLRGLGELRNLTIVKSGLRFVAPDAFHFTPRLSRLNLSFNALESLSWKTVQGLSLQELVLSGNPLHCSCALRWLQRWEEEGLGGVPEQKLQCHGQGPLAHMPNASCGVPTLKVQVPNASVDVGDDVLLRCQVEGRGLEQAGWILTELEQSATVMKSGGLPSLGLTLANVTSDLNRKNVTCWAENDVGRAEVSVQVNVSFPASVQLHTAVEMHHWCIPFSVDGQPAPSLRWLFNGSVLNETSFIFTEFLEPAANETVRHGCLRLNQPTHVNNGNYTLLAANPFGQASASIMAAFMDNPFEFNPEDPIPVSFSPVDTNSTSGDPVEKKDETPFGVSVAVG
Experimental: as §1, §2

anti-NGF mAb NGF30 = test: Competitive ELISA, anti-NGF mAb NGF30 binding to immobilized NGF (selectivity control); settings: for NGF30 binding AVERAGE: binding to immobilized NGF, no cpd = 100%, mAb NGF30 50 nM, as described for FIG. 1A
Experimental: as §1, §2

[1] = test system: NGI (NFL-GCL-IPL) retinal layers; test: ON axotomy model, retinal NGI thickness by FD-OCT; type: in vivo; settings: rat ON axotomy, 3 μg intravitreal immediately after axotomy, days 11 and 14, versus untreated axotomy
Experimental: Antagonists of p75NTR prevented loss of retinal structure after ON axotomy. The relative in vivo efficacy for I-B and LM-24 was tested using the ON axotomy model. A quantitative non-invasive structural endpoint, FD-OCT, was performed in the same animal over time to measure the integrity of the neuronal layers. We quantified the axons and fibers of the RGCs that contribute to the thickness of the Nerve Fiber Layer (NFL), the Ganglion Cell Layer (GCL), and the Inner Plexiform Layer (IPL), herein termed NGI. Maintenance of NGI structure correlates with RGC health (Bai et al., 2010a).
Wistar rats (female, 250-300 g; Charles River) were kept in a 12 hours dark-light cycle with food and water ad libitum. All animal manipulations were performed between 9 AM and 12 AM. […]
FD-OCT is a non-invasive method that allows time-kinetic studies in the same animal. […] In each B-scan the thickness of the NFL-GCL-IPL (NGI) was measured at four adjacent points at a distance 1.5 mm from the ON head. […]
(§3) For studies in the glaucoma animal model the injections were performed at days 14 and 21 after cauterization. […] Thus, in this paradigm there is pre-existing damage for 14 days before treatment (measured at ˜8% RGC death (Shi et al., 2007; Shi et al., 2008)); and the treatments require long-lived efficacy in the constant presence of retinal stress due to high IOP. […]

[2] = test system: retinal ganglion cells (RGCs); test: ON axotomy model, quantification of surviving RGCs (fluorogold labeled); type: in vivo; settings: rat ON axotomy, one intravitreal injection 3 μg, day 14; contralateral normal eye = 100%; control axotomy 10%
Experimental: (§4) Wistar rats (female, 250-300 g; Charles River) were kept in a 12 hours dark-light cycle with food and water ad libitum. All animal manipulations were performed between 9 AM and 12 AM. Deep anesthesia was used during cauterization (induction of glaucoma), ON transection, fluorogold labeling, intraocular injection procedures, Optical Coherence Tomography measurements, and euthanasia (ketamine, xylazine, acepromazine injected intraperitoneally: 50/5/1 mg/kg, as per IACUC recommendations). For measuring IOP, light anesthesia was used (a gas mixture of Oxygen, 2% isofluorane mixture, at a rate of 2.5 liter/min, as per IACUC recommendations).
The ON axotomy model in the rat (Bai et al., 2010a) was used. […]
as §3
(§5) Quantification of labeled RGCs was performed as reported (Shi et al., 2007; Shi et al., 2008). […] Pictures for each freshly flat-mounted retina were taken using a Zeiss fluorescence microscope (Carl Zeiss Meditec, Jena, Germany), with 12 pictures/retina at 20× magnification. […]

[3] = test system: retinal ganglion cells (RGCs); test: Glaucoma (episcleral vein cauterization) model, quantification of surviving RGCs; type: in vivo; settings: rat glaucoma, intravitreal injections days 14 and 21, endpoint day 42 (FIG. 2D)
Experimental: as §4
The episcleral vein cauterization (EVC) model of rat (Shi et al., 2007; Shi et al., 2008) was used. […]
as §3, §5

B104 cells = test: Pro-NTF killing assay (MTT), B104 cells; type: cell-based; settings: 50 nM, 72 hours, p<0.05
Experimental: (§6) The effect of I-B on the pro-apoptotic function of pro-NGF or pro-BDNF was tested in functional MTT assays measuring cell metabolism (FIG. 1B).
(§7) Cells (5,000 cells/well) were cultured in 96-well plates (Falcon, Lincoln Park, N.J.) in normal culture media (RPMI1640, Hepes, Glutamine, 5% serum). Wells were supplemented with NGF, BDNF, pro-NGF, or pro-BDNF (Alomone Labs) (50 nM final), in the presence or absence of I-B (20 μM final). Wells containing all culture conditions but no cells were used as blanks. The growth/survival profile of the cells was quantified using MTT (Sigma) 72 hours after plating. Optical density readings of MTT were done in a Benchmark Plus microplate Spectrophotometer (BioRad) at 595 nm with blanks subtracted.

nnr5 cells = test: Pro-NTF killing assay (MTT), nnr5 cells; type: cell-based; settings: 50 nM, 72 hours, p<0.05
Experimental: as §6, §7

[4] = competitive ELISA, FIG. 1A, compound at 30 μM

Which results are given for `Cn1c(=O)c2c(ncn2CC(=O)OCCCN)n(C)c1=O` [II-D, 3′-Aminopropyl (1,3-dimethyl-2,6-dioxo-2,3-dihydro-1H-purin-7(6H)-yl)acetate]?
remaining activity at 30 µM (p75-Fc): 69%; TrkA-Fc binding AVERAGE (TrkA-Fc): 116%; NGF30 binding AVERAGE (anti-NGF mAb NGF30): 91%

For `Cn1c(=O)c2c(ncn2CC(=O)NCCCC(F)(F)F)n(C)c1=O` [I-A, 2-(1,3-dimethyl-2,6-dioxo-2,3-dihydro-1H-purin-7(6H)-yl)-N-(4,4,4-trifluorobutyl)acetamide], which remaining activity at 30 µM (p75-Fc) is on record?
Its remaining activity at 30 µM is 74%.

And the “TrkA-Fc binding AVERAGE” value (TrkA-Fc)?
Its value is 105%.

What about the “NGF30 binding AVERAGE” value (anti-NGF mAb NGF30) of the same molecule?
Its value is 86%.

How did the remaining activity at 30 µM (p75-Fc) turn out when `CC(C)NC(=O)N(C(=O)CCc1c[nH]c2ccccc12)C(C)C` [I-R, 3-(1H-indol-3-yl)-N-isopropyl-N-(isopropylcarbamoyl)propanamide] was run?
Its remaining activity at 30 µM is 59%.

Which remaining activity at 30 µM (p75-Fc) does the source give for `CC(C)NC(=O)N(C(=O)Cc1c[nH]c2ccccc12)C(C)C` [I-Q, 2-(1H-indol-3-yl)-N-isopropyl-N-(isopropylcarbamoyl)acetamide] here?
The remaining activity at 30 µM was 53%.

For `CN(C)CCCNC(=O)Cn1cnc2c1c(=O)n(C)c(=O)n2C` [LM-24, reference compound], which “effect on NGF-p75NTR interaction” value (p75-Fc; [4]) is on record?
Its value is “antagonized NGF-p75NTR interactions selectively”.

What about the “effect on binding of TrkA to NGF” value (TrkA-Fc; [4]) of the same molecule?
The value was “did not interfere”.

What about the “effect on mAb NGF30 binding to NGF” value (anti-NGF mAb NGF30; [4]) of the same molecule?
Its value is “did not interfere”.

And the “preservation of NGI thickness (FD-OCT)” value [1]?
Its value is “very limited preservation of the NGI thickness”.

What about the RGCs surviving [2] of the same molecule?
Its RGCs surviving is 21%.

What about the “prevention of RGC death” value [3] of the same molecule?
Its value is “significantly prevent the death of RGCs”.

`Cn1c(=O)c2c(ncn2CC(=O)N(C(=O)NC2CCCCC2)C2CCCCC2)n(C)c1=O` [I-G] was tested. Which remaining activity at 30 µM (p75-Fc) did it give?
Its remaining activity at 30 µM is 62%.

What about the “TrkA-Fc binding AVERAGE” value (TrkA-Fc) of the same molecule?
Its value is 99%.

How did the remaining activity at 30 µM (p75-Fc) turn out when `Cc1ccc(NC(=O)N(C(=O)CCc2c[nH]c3ccccc23)c2ccc(C)cc2)cc1` [I-S, 3-(1H-indol-3-yl)-N-p-tolyl-N-(p-tolylcarbamoyl)propanamide] was run?
The remaining activity at 30 µM was 56%.

Which results are given for `Cn1c(=O)c2c(ncn2CC(=O)OCCCNC(=O)OCc2ccccc2)n(C)c1=O` [II-E, 3′-(Benzyloxycarbonylamino)propyl (1,3-dimethyl-2,6-dioxo-2,3-dihydro-1H-purin-7(6H)-yl)acetate]?
remaining activity at 30 µM (p75-Fc): 56%; TrkA-Fc binding AVERAGE (TrkA-Fc): 94%; NGF30 binding AVERAGE (anti-NGF mAb NGF30): 89%

Which “cell viability (MTT), growth factor alone” value (B104 cells) does the source give for “Pro-NGF: precursor of nerve growth factor (Alomone Labs), pro-apoptotic p75 ligand” here?
The value was “reduced the viability”.

And the “cell viability (MTT), growth factor alone” value (nnr5 cells)?
Its value is “reduced the viability”.

Which remaining activity at 30 µM (p75-Fc) does the source give for `CCCn1c(=O)c2c(ncn2CC(=O)OC)n(CCC)c1=O` [II-N, Methyl 2-(2,6-dioxo-1,3-dipropyl-2,3-dihydro-1H-purin-7(6H)-yl)acetate] here?
The remaining activity at 30 µM was 83%.

`Cn1c(=O)c2c(ncn2CC(=O)NCCC(F)(F)F)n(C)c1=O` [I-F, 2-(1,3-dimethyl-2,6-dioxo-2,3-dihydro-1H-purin-7(6H)-yl)-N-(3,3,3-trifluoropropyl)acetamide] was tested. Which remaining activity at 30 µM (p75-Fc) did it give?
Its remaining activity at 30 µM is 73%.

What about the “TrkA-Fc binding AVERAGE” value (TrkA-Fc) of the same molecule?
The value was 91%.

Which remaining activity at 30 µM (p75-Fc) does the source give for `COC(=O)Cn1cnc2c1c(=O)n(C)c(=O)n2C` [II-H] here?
Its remaining activity at 30 µM is 72%.

And the “TrkA-Fc binding AVERAGE” value (TrkA-Fc)?
Its value is 94%.

B1: pro-BDNF: precursor of brain derived neurotrophic factor (Alomone Labs), pro-apoptotic p75 ligand (protein, UniProt P23560 19-247, looked up)
pro-form: APMKEANIRGQGGLAYPGVRTHGTLESVNGPKAGSRGLTSLADTFEHVIEELLDEDQKVRPNEENNKDADLYTSRVMLSSQVPLEPPLLFLLEEYKNYLDAANMSMRVRRHSDPARRGELSVCDSISEWVTAADKKTAVDMSGGTVTVLEKVPVSKGQLKQYFYETKCNPMGYTKEGCRGIDKRHWNSQCRTTQSYVRALTMDSKKRIGWRFIRIDTSCVCTLTIKRGR
modifications: pro-form
notes: precursor of brain derived neurotrophic factor (Alomone Labs), pro-apoptotic p75 ligand
Which results are given for B1?
cell viability (MTT), growth factor alone (B104 cells): reduced the viability; cell viability (MTT), growth factor alone (nnr5 cells): reduced the viability
